Experiment [1] has as its system 3D human liver microtissues. The experiment can be described thus: Fibrosing NASH model: COL1A1 (pro-collagen I) ELISA in medium 1+medium 2-treated 3D human liver microtissues. To be noted: single agent, medium 1+medium 2-treated 3D liver microtissues, FIG. 9A. In kind it is cell-based. The text has this:
Cryopreserved primary human hepatocytes (IPHH_11) and cryopreserved primary human non parenchymal cells (NPCs containing endothelial and Kupffer cells) (IPHN_11) were obtained from BioIVT. The cryopreserved human primary hepatic stellate cells (hHSC) were obtained from Innoprot. 3D human liver microtissues were produced with the IPHH_11, the IPHN_11 and the hHSC in a 96-well hanging-drop culture platform (Gravity PLUS™, InSphero AG). After microtissues formation, they were transferred into a microtissue-specific 96-well culture and assay platform (Gravity TRAP™, InSphero AG). Further maintenance and compound treatments were performed in Gravity TRAP™ plates. After tissue formation, the 3D microtissues were maintained in William's E medium (Gibco) supplemented with Insulin (Sigma), Transferrin (Sigma), Selenium (Sigma), Glutamine (Gibco), Dexamethasone (Sigma), HEPES (Sigma), Gentamicin (Gibco) and Amphotericin B (Sigma) at 37° C. in a humidified 5% CO2 cell culture incubator for 4 days. Half of the culture medium was replenished every 3 days.
Hepatic microtissues were treated once with a couple of carbohydrates (final concentration ranging from 1 to 100 mM), a couple of free fatty acids either saturated or unsaturated with a final concentration ranging from 100μM to 1 mM and a source of cholesterol with a concentration ranging from 1 μg/mL to 1 mg/mL (medium 1). After 2 to 5 days, microtissues were treated with a couple of carbohydrates (final concentration ranging from 1 to 100 mM), a couple of free fatty acids either saturated or unsaturated with a final concentration ranging from 100 μM to 1 mM and a source of cholesterol with a concentration ranging from 1 μg/mL to 250 μg/mL, a member of the growth factor superfamily member, a member of the TNFSF with a concentration ranging from 1 ng/mL to 1 μg/mL and a sphingolipid with a concentration ranging from 1 nM to 500 nM (medium 2). This treatment lasts from 2 to 5 days.
The level of Collal, IL-8 and MCP-1 was measured using a Sandwich ELISA, according to manufacturer's instructions provided with “Elisa Pro-Collagen I α1/COLIA1”, (DuoSet ELISA, R&D, catalog N°: DY6220-05), Elisa CXCL8/IL-8 (DuoSet ELISA, R&D, catalog N°: DY208n) and Elisa CCL2/MCP-1 (DuoSet ELISA, R&D, catalog N°: DY279) kits, respectively.
For these experiments, a checkerboard matrix was generated. ELA and component (ii) stocks were serially diluted in DMSO in 2-points series in a row (ELA) and a 3-points series in a column (component (ii)) of a 96-well plate. Subsequently, the 2×3 combination matrix was generated by 1:1 mixing of all single agent concentrations.

The subject of experiment [2] is 3D Huh7 spheroids. The experiment can be described thus: Steatosis model: AdipoRed lipid quantification in 3D Huh7 spheroids induced with first culture medium. In kind it is cell-based, human. As to conditions: 3D liver microtissue steatosis model, 6 days of treatment with test compound. As for the experimental part:
The Huh 7 human hepatocellular carcinoma cell line was seeded in William's E medium (Gibco) with 10% FBS (Gibco) at a density of 3000 cells/well in 384 well plate ULA (Corning). After a few days, spheroids are formed and cells are grown in serum-free culture medium.
William's E medium was supplemented with FFAs (oleate+palmitate, 400 μM total FFA concentration) fructose 15 mM (Sigma) and soluble cholesterol […] (Sigma). Huh7 spheroids were treated for 3 days with this medium with or without a test compound and the treatment was renewed once with or without a test compound.
Steatosis was then measured after 6 days of treatment with or without the test compound.
Lipid Staining and Quantification Intracellular lipid accumulation was quantified using the AdipoRed™ Adipogenesis Assay Reagent (Lonza). Cells were visualized under epifluorescence microscope and then subjected to fluorescence assay quantification at λexc: 485 nm and λem: 572 nm, using plate reader (TECAN).

Each structure is given as a SMILES string. Entries after “also recorded” stand apart in the source; their conditions may differ.

On to `O=C(c1c2ccccc2cc2ccccc12)N1CCC(N2CCC[C@@H](C(=O)N3CCOCC3)C2)CC1` [CP-640186], for which the “inhibition of COL1A1 secretion (collagen release)” value (shortened to “inhibition”) in experiment [1] (high dose 3 μM) was “the release of collagen was affected; also recorded: inhibition of COL1A1 secretion”. In experiment [2], the “antisteatotic activity (lipid content, AdipoRed signal)” value is on record as “antisteatotic activity”. For the compound `CSc1ccc(C(=O)/C=C/c2cc(C)c(OC(C)(C)C(=O)O)c(C)c2)cc1` [Elafibranor], the “inhibition” value in experiment [1] (high dose 3 μM) is recorded as “inhibition of COL1A1 secretion”; in experiment [1] (high dose 3 μM, listed as ELA), “the release of collagen was affected”. Take `COc1cc(C(=O)N2CCC3(CC2)CC(=O)c2cc(-c4cncc(C(=O)O)c4)ccc2O3)cc2c1c(C)cn2C1CC1` [MK-4074]: the “antisteatotic activity (lipid content, AdipoRed signal)” value in experiment [2] is on record as “antisteatotic activity”. On to `COc1ccccc1[C@H](Cn1c(=O)n(C(C)(C)C(=O)O)c(=O)c2c(C)c(-c3ncco3)sc21)OC1CCOCC1` [GS-0976], for which the “inhibition” value in experiment [1] (high dose 1 μM) is “the release of collagen was affected; also recorded: inhibition of COL1A1 secretion”. For the same compound, the “antisteatotic activity (lipid content, AdipoRed signal)” value in experiment [2] is on record as “antisteatotic activity”.

The values above are taken from US20220056419A1, “IN VITRO MODEL OF LIVER STEATOSIS AND FIBROSING NON-ALCOHOLIC STEATOHEPATITIS” (GENFIT, priority 2018, published 2022).
